# Experimental data from publication PMC3602459 (2013).
# Experiments:
# [1] = test system: tRNA^phe (yeast) (RNA, tRNA) GCGGAUUUAGCUCAGUUGGGAGAGCGCCAGACUGAAGAUCUGGAGGUCCUGUGUUCGAUCCACAGAAUUCGCACCA; experiment: fluorescence titration, Benesi-Hildebrand; settings: 10 mM Na+; citrate-phosphate, pH 7.1, 20 °C; apparent; tRNA in nucleotide phosphates; per base
# [2] = test system: tRNA^phe (yeast) (RNA, tRNA) GCGGAUUUAGCUCAGUUGGGAGAGCGCCAGACUGAAGAUCUGGAGGUCCUGUGUUCGAUCCACAGAAUUCGCACCA; experiment: ITC; settings: 10 mM Na+; citrate-phosphate, pH 7.0, 20 °C; only background heats, binding negligible
# [3] = test system: tRNA^phe (yeast) (RNA, tRNA) GCGGAUUUAGCUCAGUUGGGAGAGCGCCAGACUGAAGAUCUGGAGGUCCUGUGUUCGAUCCACAGAAUUCGCACCA; experiment: absorbance titration, Benesi-Hildebrand; settings: 10 mM Na+; citrate-phosphate, pH 7.1, 20 °C; apparent; tRNA in nucleotide phosphates; per base
# [4] = test system: tRNA^phe (yeast) (RNA, tRNA) GCGGAUUUAGCUCAGUUGGGAGAGCGCCAGACUGAAGAUCUGGAGGUCCUGUGUUCGAUCCACAGAAUUCGCACCA; experiment: UV melting, 260 nm; settings: 10 mM Na+; citrate-phosphate, pH 7.0; 50 µM tRNA nucleotides; saturating alkaloid; average Tm 50 °C alone; per base
# [5] = test system: tRNA^phe (yeast) (RNA, tRNA) GCGGAUUUAGCUCAGUUGGGAGAGCGCCAGACUGAAGAUCUGGAGGUCCUGUGUUCGAUCCACAGAAUUCGCACCA; experiment: ITC, single-site fit; settings: 10 mM Na+; citrate-phosphate, pH 7.0, 20 °C; tRNA concentration in nucleotide phosphates; per base
# [6] = test system: tRNA^phe (yeast) (RNA, tRNA) GCGGAUUUAGCUCAGUUGGGAGAGCGCCAGACUGAAGAUCUGGAGGUCCUGUGUUCGAUCCACAGAAUUCGCACCA; experiment: fluorescence titration, Scatchard, McGhee-von Hippel cooperative fit; settings: 10 mM Na+; citrate-phosphate, pH 7.1, 20 °C; overall cooperative constant; tRNA in nucleotide phosphates; per base
# [7] = test system: tRNA^phe (yeast) (RNA, tRNA) GCGGAUUUAGCUCAGUUGGGAGAGCGCCAGACUGAAGAUCUGGAGGUCCUGUGUUCGAUCCACAGAAUUCGCACCA; experiment: absorbance titration, Scatchard, McGhee-von Hippel cooperative fit; settings: 10 mM Na+; citrate-phosphate, pH 7.1, 20 °C; overall cooperative constant; tRNA in nucleotide phosphates; per base
Structure (SMILES),KBH [1],binding [2],KBH [3],ΔTm [4],Ka [5],Kiω [6],Kiω [7]
COc1ccc2cc3[n+](cc2c1O)CCc1cc2c(cc1-3)OCO2,4200 M⁻¹,weak,4300 M⁻¹,2.0 °C,–,–,–
COc1ccc2cc3[n+](cc2c1OC)CCc1cc2c(cc1-3)OCO2,122000 M⁻¹,–,114000 M⁻¹,4.5 °C,0.86 ± 0.01 × 10^5 M^-1,177000 M⁻¹,169000 M⁻¹
COc1ccc2cc3[n+](cc2c1OCC(=O)Nc1ccccc1)CCc1cc2c(cc1-3)OCO2,404000 M⁻¹,–,425000 M⁻¹,6.5 °C,4.67 ± 0.03 × 10^5 M^-1,427000 M⁻¹,434000 M⁻¹

# More lines, now with the values ahead:
KBH [1],binding [2],KBH [3],ΔTm [4],Ka [5],Kiω [6],Kiω [7],Structure (SMILES)
889000 M⁻¹,–,874000 M⁻¹,8.0 °C,8.20 ± 0.04 × 10^5 M^-1,941000 M⁻¹,922000 M⁻¹,COc1ccc2cc3[n+](cc2c1OCC(=O)NCCc1ccccc1)CCc1cc2c(cc1-3)OCO2
644000 M⁻¹,–,613000 M⁻¹,7.0 °C,7.17 ± 0.03 × 10^5 M^-1,658000 M⁻¹,640000 M⁻¹,COc1ccc2cc3[n+](cc2c1OCC(=O)NCc1ccccc1)CCc1cc2c(cc1-3)OCO2
